In publication PMC9653409, “Generative deep learning enables the discovery of a potent and selective RIPK1 inhibitor” (Nature Communications, 2022):
Several values for one entry are separate records, joined by “and”; a condition that tells them apart may be missing. Equal entries are not always repeated. Where two headings read alike, the source gives them in different places.

What was measured:
IL-1β = experiment: TNFα-induced SIRS mouse model: serum IL-1β (ELISA); format: in vivo, C57BL/6 female mice; conditions: 40 mg/kg i.p.
Experimental: The body temperatures of the mice were continuously monitored until 6 h after TNFα administration. At 6 h after TNFα injection, four mice in each group were killed at random, and the serums, heart, liver, spleen, lung, and kidney tissues were collected for analysis.
(§1) In the TNFα-induced SIRS model, at 6 h after TNFα injection, four mice in each group were killed at random, and the serums were collected, the serum concentrations of IL-1β and IL-6 were measured using ELISA kits (Neobioscience Technology) according to manufacturer’s instructions. […] The supernatant was collected by sequential centrifugation at 500 × g for 10 min and 3000 × g for 10 min. The concentrations of cytokines TNFα, IL-6, and IL-1β were measured using ELISA kits (Neobioscience Technology).

IL-6 = experiment: DSS-induced IBD mouse model: IL-6 in cultured colon supernatant (ELISA); format: in vivo, C57BL/6 female mice
Experimental: DSS (3% w/v) was administered in drinking water ad libitum for 7 d (from day 0 to day 7). DSS solution was replaced three times on day 2, day 4, and day 6. […] Three mice in each group were killed at random on day 7, and distal colon tissues were collected for analysis. The mice weight and survival rate were recorded daily.
as §1

U937 cells = experiment: TSZ-induced U937 cell necroptosis model (CCK8); format: cell-based; conditions: Homo sapiens, U-937
Experimental: Cell necroptosis protection assays were performed in 96-well cell culture plates. Cells were plated in each well and cultured at 37 °C overnight. […] The cell survival rate was determined using a CCK8 cell viability assay kit and CLARIOstar (v5.61). […] All experiments were performed at least two times, and each EC50 value was expressed as mean ± standard deviation (SD).

[1] = biological target: panel of human kinases (kinase named in endpoint) (Homo sapiens, UniProt Q8IU85); experiment: Kinase inhibitory activity profiling of RI-962@10 µM (406 kinases, Eurofins); format: biochemical; conditions: 10 µM; read-out: Activity (%), CaMKIδ(h)
Sequence of panel of human kinases (kinase named in endpoint) (Homo sapiens, UniProt Q8IU85) (Q8IU85 whole entry): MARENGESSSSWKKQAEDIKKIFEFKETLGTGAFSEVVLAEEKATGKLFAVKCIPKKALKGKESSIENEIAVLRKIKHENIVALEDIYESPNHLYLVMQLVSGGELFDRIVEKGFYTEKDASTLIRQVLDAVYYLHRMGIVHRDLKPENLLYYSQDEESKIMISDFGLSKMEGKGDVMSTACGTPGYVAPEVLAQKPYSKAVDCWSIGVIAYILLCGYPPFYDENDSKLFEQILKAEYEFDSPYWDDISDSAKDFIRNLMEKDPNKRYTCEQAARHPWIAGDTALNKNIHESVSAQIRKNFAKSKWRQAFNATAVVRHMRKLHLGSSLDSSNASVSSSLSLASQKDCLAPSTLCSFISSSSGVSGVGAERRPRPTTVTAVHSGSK
Experimental: (§2) In vitro kinase activity assays were conducted through the Kinase Profiling Services provided by Eurofins (Eurofins, France). The protocol for the RIPK1 assay is briefly described as follows (Protocols for other kinases are very similar and can be found in http://www.eurofins.com/pharmadiscovery). RIPK1 kinase was incubated with the test compound in assay buffer containing 8 mM MOPS (pH 7.0), 0.2 mM EDTA, 250 μM […], 10 mM magnesium acetate, and 10 μM [γ-33P]-ATP for 15 min at room temperature. The reaction was initiated by the addition of the Mg/ATP mixture. After incubation for 40 min at room temperature, and the reaction was stopped by the addition of 3% phosphoric acid. A 10 μL portion of the reaction mixture was then spotted onto a P30 filter mat and washed four times for 4 min in 0.425% phosphoric acid and once in methanol prior to drying and scintillation counting.

[2] = biological target: panel of human kinases (kinase named in endpoint) (Homo sapiens, UniProt Q00534); experiment: as above; format: biochemical; conditions: 10 µM; read-out: Activity (%), CDK6/cyclinD3(h)
Sequence of panel of human kinases (kinase named in endpoint) (Homo sapiens, UniProt Q00534) (Q00534 whole entry): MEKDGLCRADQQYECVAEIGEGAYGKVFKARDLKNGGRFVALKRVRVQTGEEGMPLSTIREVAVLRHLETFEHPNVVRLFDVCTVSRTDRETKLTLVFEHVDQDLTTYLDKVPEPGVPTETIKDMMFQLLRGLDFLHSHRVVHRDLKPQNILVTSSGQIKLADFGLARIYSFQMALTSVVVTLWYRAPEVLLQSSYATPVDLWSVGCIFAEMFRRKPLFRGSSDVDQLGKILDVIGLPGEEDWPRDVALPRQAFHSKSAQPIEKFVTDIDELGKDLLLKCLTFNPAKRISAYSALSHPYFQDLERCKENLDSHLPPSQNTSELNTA
Experimental: as §2

[3] = biological target: panel of human kinases (kinase named in endpoint) (Homo sapiens, UniProt P22694); experiment: as above; format: biochemical; conditions: 10 µM; read-out: Activity (%), PKAcβ(h)
Experimental: as §2

[4] = biological target: panel of human kinases (kinase named in endpoint) (Homo sapiens, UniProt O75116); experiment: as above; format: biochemical; conditions: 10 µM; read-out: Activity (%), ROCK-II(h)
Experimental: as §2

[5] = biological target: panel of human kinases (kinase named in endpoint) (Homo sapiens, UniProt P51817); experiment: as above; format: biochemical; conditions: 10 µM; read-out: Activity (%), PrKX(h)
Sequence of panel of human kinases (kinase named in endpoint) (Homo sapiens, UniProt P51817) (P51817 whole entry): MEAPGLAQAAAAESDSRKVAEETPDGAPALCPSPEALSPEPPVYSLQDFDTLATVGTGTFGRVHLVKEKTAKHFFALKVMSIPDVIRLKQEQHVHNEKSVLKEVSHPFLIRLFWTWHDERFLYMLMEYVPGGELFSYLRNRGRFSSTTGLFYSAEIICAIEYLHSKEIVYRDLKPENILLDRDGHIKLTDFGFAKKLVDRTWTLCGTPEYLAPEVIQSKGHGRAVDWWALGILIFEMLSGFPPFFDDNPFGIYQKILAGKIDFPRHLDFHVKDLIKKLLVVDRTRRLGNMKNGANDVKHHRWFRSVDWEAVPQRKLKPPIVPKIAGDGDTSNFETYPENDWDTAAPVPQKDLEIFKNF
Experimental: as §2

[6] = biological target: panel of human kinases (kinase named in endpoint) (Homo sapiens, UniProt P07333, Y969C); experiment: as above; format: biochemical; conditions: 10 µM; read-out: Activity (%), Fms(Y969C)(h)
Sequence of panel of human kinases (kinase named in endpoint) (Homo sapiens, UniProt P07333, Y969C) (P07333 20-972 Y969C): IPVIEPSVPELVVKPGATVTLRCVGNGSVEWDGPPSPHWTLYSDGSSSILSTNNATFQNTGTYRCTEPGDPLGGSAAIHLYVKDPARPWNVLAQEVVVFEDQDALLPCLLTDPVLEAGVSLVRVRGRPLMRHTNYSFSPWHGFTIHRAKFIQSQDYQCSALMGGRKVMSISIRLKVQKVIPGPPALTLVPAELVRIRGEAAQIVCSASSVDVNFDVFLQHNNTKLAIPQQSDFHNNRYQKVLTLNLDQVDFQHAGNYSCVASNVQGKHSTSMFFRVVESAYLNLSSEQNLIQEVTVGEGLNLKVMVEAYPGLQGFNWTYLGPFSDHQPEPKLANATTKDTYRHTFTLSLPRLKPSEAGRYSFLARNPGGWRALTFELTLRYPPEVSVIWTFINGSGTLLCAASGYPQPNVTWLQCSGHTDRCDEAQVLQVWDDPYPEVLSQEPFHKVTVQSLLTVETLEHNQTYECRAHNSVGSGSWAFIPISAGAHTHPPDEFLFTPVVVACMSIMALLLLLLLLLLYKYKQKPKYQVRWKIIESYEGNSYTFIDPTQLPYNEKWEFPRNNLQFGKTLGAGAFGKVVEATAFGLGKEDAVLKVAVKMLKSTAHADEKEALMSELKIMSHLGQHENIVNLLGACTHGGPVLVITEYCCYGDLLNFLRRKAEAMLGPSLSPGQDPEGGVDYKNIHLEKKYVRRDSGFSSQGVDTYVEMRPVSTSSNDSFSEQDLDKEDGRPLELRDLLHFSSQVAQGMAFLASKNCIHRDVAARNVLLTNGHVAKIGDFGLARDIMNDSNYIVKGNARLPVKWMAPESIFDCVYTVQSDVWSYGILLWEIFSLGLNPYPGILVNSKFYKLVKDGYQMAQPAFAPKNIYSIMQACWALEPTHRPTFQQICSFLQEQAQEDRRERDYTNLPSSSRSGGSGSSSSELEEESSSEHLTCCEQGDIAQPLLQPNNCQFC
Experimental: as §2

[7] = biological target: panel of human kinases (kinase named in endpoint) (Homo sapiens, UniProt O60331); experiment: as above; format: biochemical; conditions: 10 µM; read-out: Activity (%), PIP5K1g(h)
Experimental: as §2

[8] = biological target: panel of human kinases (kinase named in endpoint) (Homo sapiens, UniProt O96017, R145W); experiment: as above; format: biochemical; conditions: 10 µM; read-out: Activity (%), CHK2(R145W)(h)
Experimental: as §2

[9] = biological target: panel of human kinases (kinase named in endpoint) (Homo sapiens, UniProt P00519); experiment: as above; format: biochemical; conditions: 10 µM; read-out: Activity (%), Abl(h)
Experimental: as §2

[10] = biological target: panel of human kinases (kinase named in endpoint) (Homo sapiens, UniProt P08581, Y1230D); experiment: as above; format: biochemical; conditions: 10 µM; read-out: Activity (%), Met(Y1248D)(h)
Experimental: as §2

[11] = biological target: panel of human kinases (kinase named in endpoint) (Homo sapiens, UniProt Q15375); experiment: as above; format: biochemical; conditions: 10 µM; read-out: Activity (%), EphA7(h)
Experimental: as §2

[12] = biological target: panel of human kinases (kinase named in endpoint) (Homo sapiens, UniProt P54753); experiment: as above; format: biochemical; conditions: 10 µM; read-out: Activity (%), EphB3(h)
Sequence of panel of human kinases (kinase named in endpoint) (Homo sapiens, UniProt P54753) (P54753 34-998): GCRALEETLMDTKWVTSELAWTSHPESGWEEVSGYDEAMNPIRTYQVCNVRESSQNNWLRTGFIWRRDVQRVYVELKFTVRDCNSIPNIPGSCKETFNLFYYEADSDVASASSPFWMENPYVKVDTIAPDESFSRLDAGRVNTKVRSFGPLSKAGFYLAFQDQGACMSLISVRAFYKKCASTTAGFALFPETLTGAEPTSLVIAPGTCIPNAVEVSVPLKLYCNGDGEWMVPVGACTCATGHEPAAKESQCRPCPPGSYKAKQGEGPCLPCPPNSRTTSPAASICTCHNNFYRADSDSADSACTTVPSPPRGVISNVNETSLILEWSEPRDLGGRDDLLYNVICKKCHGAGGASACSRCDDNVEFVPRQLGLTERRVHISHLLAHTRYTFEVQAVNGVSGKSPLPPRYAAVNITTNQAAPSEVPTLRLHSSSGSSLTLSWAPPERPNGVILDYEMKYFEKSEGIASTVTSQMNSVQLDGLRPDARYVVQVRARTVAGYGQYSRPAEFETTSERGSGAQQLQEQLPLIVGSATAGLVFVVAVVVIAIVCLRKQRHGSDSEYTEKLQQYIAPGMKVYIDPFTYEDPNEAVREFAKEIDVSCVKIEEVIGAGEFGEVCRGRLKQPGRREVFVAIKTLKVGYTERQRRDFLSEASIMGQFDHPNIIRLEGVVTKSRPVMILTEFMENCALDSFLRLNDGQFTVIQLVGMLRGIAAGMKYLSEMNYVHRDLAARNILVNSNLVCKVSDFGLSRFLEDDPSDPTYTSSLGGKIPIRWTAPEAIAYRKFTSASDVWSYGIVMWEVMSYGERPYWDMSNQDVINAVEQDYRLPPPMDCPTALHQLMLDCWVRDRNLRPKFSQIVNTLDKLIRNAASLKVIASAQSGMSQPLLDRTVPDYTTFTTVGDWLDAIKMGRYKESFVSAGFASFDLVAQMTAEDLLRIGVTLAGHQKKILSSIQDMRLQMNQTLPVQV
Experimental: as §2

[13] = biological target: panel of human kinases (kinase named in endpoint) (Homo sapiens, UniProt Q5VT25); experiment: as above; format: biochemical; conditions: 10 µM; read-out: Activity (%), MRCKα(h)
Sequence of panel of human kinases (kinase named in endpoint) (Homo sapiens, UniProt Q5VT25) (Q5VT25 whole entry): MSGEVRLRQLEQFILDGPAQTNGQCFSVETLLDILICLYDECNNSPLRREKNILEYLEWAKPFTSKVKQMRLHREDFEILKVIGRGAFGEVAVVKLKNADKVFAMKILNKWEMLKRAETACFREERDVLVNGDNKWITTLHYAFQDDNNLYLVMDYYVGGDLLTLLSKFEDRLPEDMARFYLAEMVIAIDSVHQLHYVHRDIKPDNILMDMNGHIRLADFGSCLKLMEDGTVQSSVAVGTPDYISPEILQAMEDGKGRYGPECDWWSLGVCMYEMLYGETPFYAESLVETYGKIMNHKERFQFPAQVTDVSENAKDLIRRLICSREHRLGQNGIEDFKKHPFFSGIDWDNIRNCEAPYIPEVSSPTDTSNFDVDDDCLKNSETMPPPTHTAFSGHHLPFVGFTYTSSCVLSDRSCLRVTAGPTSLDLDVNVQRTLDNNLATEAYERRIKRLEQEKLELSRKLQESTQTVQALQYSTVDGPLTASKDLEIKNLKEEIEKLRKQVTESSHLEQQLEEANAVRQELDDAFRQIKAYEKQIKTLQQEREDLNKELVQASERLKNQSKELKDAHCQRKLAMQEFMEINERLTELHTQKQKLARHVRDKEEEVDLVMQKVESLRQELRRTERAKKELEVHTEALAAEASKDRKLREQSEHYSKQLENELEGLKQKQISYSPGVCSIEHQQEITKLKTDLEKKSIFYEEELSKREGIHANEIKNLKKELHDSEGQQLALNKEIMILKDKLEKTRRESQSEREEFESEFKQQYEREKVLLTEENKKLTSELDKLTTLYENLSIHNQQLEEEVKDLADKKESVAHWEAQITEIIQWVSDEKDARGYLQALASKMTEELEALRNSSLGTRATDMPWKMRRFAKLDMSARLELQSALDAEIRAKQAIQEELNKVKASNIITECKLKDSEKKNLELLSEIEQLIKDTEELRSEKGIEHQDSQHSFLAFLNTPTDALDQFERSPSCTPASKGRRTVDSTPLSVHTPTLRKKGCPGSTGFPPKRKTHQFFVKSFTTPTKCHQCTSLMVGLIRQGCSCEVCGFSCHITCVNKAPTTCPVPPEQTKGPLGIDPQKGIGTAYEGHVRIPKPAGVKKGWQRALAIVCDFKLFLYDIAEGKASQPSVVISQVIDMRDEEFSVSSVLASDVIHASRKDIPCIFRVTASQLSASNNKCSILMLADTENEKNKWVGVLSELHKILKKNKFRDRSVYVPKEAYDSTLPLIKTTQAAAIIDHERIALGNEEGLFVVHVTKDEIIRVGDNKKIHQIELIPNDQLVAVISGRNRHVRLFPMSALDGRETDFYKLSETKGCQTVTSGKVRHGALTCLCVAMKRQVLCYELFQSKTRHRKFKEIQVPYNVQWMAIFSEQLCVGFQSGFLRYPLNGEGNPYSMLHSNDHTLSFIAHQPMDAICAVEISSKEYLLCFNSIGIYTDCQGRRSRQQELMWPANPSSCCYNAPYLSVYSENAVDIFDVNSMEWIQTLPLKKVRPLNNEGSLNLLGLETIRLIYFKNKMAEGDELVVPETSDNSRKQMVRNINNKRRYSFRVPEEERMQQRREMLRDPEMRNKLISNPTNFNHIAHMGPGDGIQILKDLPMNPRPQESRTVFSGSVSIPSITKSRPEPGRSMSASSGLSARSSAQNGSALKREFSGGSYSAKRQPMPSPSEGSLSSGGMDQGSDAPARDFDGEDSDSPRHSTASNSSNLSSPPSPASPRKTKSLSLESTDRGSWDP
Experimental: as §2

[14] = biological target: panel of human kinases (kinase named in endpoint) (Homo sapiens, UniProt P42345); experiment: as above; format: biochemical; conditions: 10 µM
Experimental: as §2

[15] = biological target: panel of human kinases (kinase named in endpoint) (Homo sapiens, UniProt Q06418); experiment: as above; format: biochemical; conditions: 10 µM; read-out: Activity (%), Rse(h)
Experimental: as §2

[16] = biological target: panel of human kinases (kinase named in endpoint) (Homo sapiens, UniProt P00533, T790M); experiment: as above; format: biochemical; conditions: 10 µM; read-out: Activity (%), EGFR(T790M)(h)
Experimental: as §2

Compound: CC(C)C(=O)Nc1nc2cc(-c3ccc4c(c3)c(C(=O)NC(C)c3ccccc3)cn4C)ccn2n1 (stereo not drawn) [RI-962]
- concentration of IL-1β (IL-1β; 6 h after TNFα): remarkably reduced
- IL-1β (IL-1β; serum 6 h after TNFα, animals 1-4): 95.48 pg/mL and 91.16 pg/mL and 77.29 pg/mL and 76.39 pg/mL
- content of IL-6 in cultured colonic tissue supernatants (IL-6; 40 mg/kg i.p., day 7): substantially reduced
- IL-6 (IL-6; Figure 9i, individual replicates 1-3): 994.1 pg/mL and 876.1 pg/mL and 967.8 pg/mL
- viability at 56 pM (U937 cells; 0.000056 μM): 1.42%
- viability at 0.000169 µM (U937 cells; 0.000169 μM): 0.727%
- viability at 0.000508 µM (U937 cells; 0.000508 μM): 0.579%
- viability at 0.001524 µM (U937 cells; 0.001524 μM): 2.66%
- viability at 0.004572 µM (U937 cells; 0.004572 μM): 8.5%
- viability at 0.013717 µM (U937 cells; 0.013717 μM): 37.9%
- viability at 0.041152 µM (U937 cells; 0.041152 μM): 78%
- viability at 0.123457 µM (U937 cells; 0.123457 μM): 84.5%
- viability at 0.37037 µM (U937 cells; 0.370370 μM): 96.7%
- viability at 1.11111 µM (U937 cells; 1.111111 μM): 96.2%
- viability at 3.33333 µM (U937 cells; 3.333333 μM): 90.4%
- EC50 (U937 cells; U937 treated with TSZ, 24 h): 17.8 nM
- activity at 10 µM [1]: 104%
- activity at 10 µM [2]: 92%
- activity at 10 µM [3]: 117%
- activity at 10 µM [4]: 90%
- activity at 10 µM [5]: 126%
- activity at 10 µM [6]: 73%
- activity at 10 µM [7]: 98%
- activity at 10 µM [8]: 99%
- activity at 10 µM [9]: 85%
- activity at 10 µM [10]: 110%
- activity at 10 µM [11]: 100%
- activity at 10 µM [12]: 77%
- activity at 10 µM [13]: 94%
- activity at 10 µM ([14]; read-out: Activity (%), mTOR(h)): 87%
- activity at 10 µM ([14]; read-out: Activity (%), mTOR/FKBP12(h)): 98%
- activity at 10 µM [15]: 108%
- activity at 10 µM [16]: 119%
